# Tests used:
# HT-1080 = experiment: Antiproliferative activity against human HT1080 cells after 96 hrs by MTT assay; assay type: functional, cell-based; conditions: HT-1080, 96 h
# A-375 = experiment: Antiproliferative activity against human A375 cells after 96 hrs by MTT assay; assay type: functional, cell-based; conditions: A-375, 96 h
# Bel-7402 = experiment: Antiproliferative activity against human Bel7402 cells after 96 hrs by MTT assay; assay type: functional, cell-based; conditions: Bel-7402, 96 h
# NCI-N87 = experiment: Antiproliferative activity against human NCI-N87 cells after 96 hrs by MTT assay; assay type: functional, cell-based; conditions: NCI-N87, 96 h
# HeLa = experiment: Antiproliferative activity against human HeLa cells after 96 hrs by MTT assay; assay type: functional, cell-based
# PANC-1 = experiment: Antiproliferative activity against human PANC1 cells after 96 hrs by MTT assay; assay type: functional, cell-based; conditions: PANC-1, 96 h
# HUVEC = experiment: Antiproliferative activity against human HUVEC cells after 96 hrs by MTT assay; assay type: cell-based
IC50 (HT-1080),IC50 (A-375),IC50 (Bel-7402),IC50 (HeLa),IC50 (PANC-1),Structure (SMILES),IC50 (NCI-N87),IC50 (HUVEC)
1.2 nM,4.6 nM,578 nM,100 nM,384 nM,CC(=O)O[C@H]1C(=O)[C@@]2(C)[C@H]([C@H](OC(=O)c3ccccc3)[C@]3(O)C[C@H](OC(=O)[C@H](O)[C@@H](NC(=O)c4ccccc4)c4ccccc4)C(C)=C1C3(C)C)[C@]1(OC(C)=O)CO[C@@H]1C[C@@H]2O [PACLITAXEL],5.9 nM,–
–,–,–,–,–,CO[C@@H]1[C@H](OC(=O)NC(=O)CCl)CC[C@]2(CO2)[C@H]1[C@@]1(C)O[C@@H]1CC=C(C)C [O-CHLOROACETYLCARBAMOYLFUMAGILLOL],–,0.76 nM

# Reference: ChEMBL document CHEMBL1759870, “Identification, structural properties and chelating capacity of miltipolone as a broad-spectrum inhibitor to cancer cells” (Eur J Med Chem, 2011)
